According to US8846684B2 (priority 2011, dated 2014):
Where two headings read alike, the source gives them in different places.

Tested on: WEEV replicon
Assay: microbe, parasite or virus in culture
Type: cell-based, Western equine encephalitis virus
Details: Western equine encephalitis virus; for activity at 2 µM: read-out: Activity (% control LUC) 2 μM; for activity at 10 µM: read-out: Activity (% control LUC) 10 μM
[1] = read-out: Activity (% control LUC) 50 μM
[2] = read-out: 50 μM (% control) Luc

| SMILES | IC50 (read-out: Activity IC50 (μM)) | activity at 2 µM | activity at 10 µM | activity at 50 µM [1] | IC50 | activity at 50 µM [2] |
| --- | --- | --- | --- | --- | --- | --- |
| O=C(c1cc2ccccc2n1Cc1ccc(Cl)cc1)N1CCC(C(=O)N2CCCC2)CC1 [CCG 102514, (1-(4-chlorobenzyl)-1H-indol-2-yl)(4-(pyrrolidine-1-carbonyl)piperidin-1-yl)methanone] | 23.8 µM | 83.1% | 66.4% | 10.5% | – | – |
| Cc1ccc(CCNC(=O)C2CCN(C(=O)c3cc4ccccc4n3Cc3ccc(Cl)cc3)CC2)cc1 [CCG 102518, 1-(1-(4-chlorobenzyl)-1H-indole-2-carbonyl)-N-(4-methylphenethyl)piperidine-4-carboxamide] | 4.2 µM | 83% | 33.8% | 32.2% | – | – |
| O=C(NCc1ccccc1)C1CCN(C(=O)c2cc3ccccc3n2Cc2ccc(F)cc2)CC1 [CCG 203880, N-benzyl-1-(1-(4-fluorobenzyl)-1H-indole-2-carbonyl)piperidine-4-carboxamide] | 25 µM | 134% | 121% | 67% | – | – |
| O=C(c1cc2ccccc2n1Cc1ccc(Cl)cc1)N1CCC(C(=O)N2CCCCC2)CC1 [CCG 203928, (1-(4-chlorobenzyl)-1H-indol-2-yl)(4-(piperidine-1-carbonyl)piperidin-1-yl)methanone] | 8.1 µM | 95.1% | 65.4% | 3.4% | – | – |
| O=C(NCc1ccncc1)C1CCN(C(=O)c2cc3ccccc3n2Cc2ccc(Cl)cc2)CC1 [CCG 203929, 1-(1-(4-chlorobenzyl)-1H-indole-2-carbonyl)-N-(pyridin-4-ylmethyl)piperidine-4-carboxamide] | 6.6 µM | 99.5% | 51.8% | 36.4% | – | – |
| CN(Cc1ccccc1)C(=O)C1CCN(C(=O)c2cc3ccccc3n2Cc2ccc(Cl)cc2)CC1 [CCG 203930, N-benzyl-1-(1-(4-chlorobenzyl)-1H-indole-2-carbonyl)-N-methylpiperidine-4-carboxamide] | 18.6 µM | 110% | 59.5% | 38% | – | – |
| O=C(c1cc2ccccc2n1Cc1ccc(F)cc1)N1CCN(Cc2ccccc2)CC1 [CCG 203942, (4-benzylpiperazin-1-yl)(1-(4-fluorobenzyl)-1H-indol-2-yl)methanone] | 12.8 µM | 116% | 73.8% | 48.9% | – | – |
| O=C(c1cc2ccccc2n1Cc1ccc(F)cc1)N1CCC(C(=O)N2CCCCC2)CC1 [CCG 203945, (1-(4-fluorobenzyl)-1H-indol-2-yl)(4-(piperidine-1-carbonyl)piperidin-1-yl)methanone] | 20 µM | 85% | 64.4% | 21.3% | – | – |
| O=C(c1cc2ccccc2n1Cc1ccc(Cl)cc1)N1CCC(C(=O)N2CCC[C@H]2CO)CC1 [CCG 204021, (S)-(1-(4-chlorobenzyl)-1H-indol-2-yl)(4-(2-(hydroxymethyl)pyrrolidine-1-carbonyl)piperidin-1-yl)methanone] | 32.1 µM | 87.8% | 77.9% | 21.1% | – | – |
| CN(C)C(=O)C1CCN(C(=O)c2cc3ccccc3n2Cc2ccc(Cl)cc2)CC1 [CCG 204022, 1-(1-(4-chlorobenzyl)-1H-indole-2-carbonyl)-N,N-dimethylpiperidine-4-carboxamide] | 10.4 µM | 87.3% | 51.9% | 5.8% | – | – |
| CN1CCN(C(=O)C2CCN(C(=O)c3cc4ccccc4n3Cc3ccc(Cl)cc3)CC2)CC1 [CCG 204023, (1-(4-chlorobenzyl)-1H-indol-2-yl)(4-(4-methylpiperazine-1-carbonyl)piperidin-1-yl)methanone] | 21.4 µM | 99% | 67.4% | 6% | – | – |
| O=C(c1cc2ccccc2n1Cc1ccc(Cl)cc1)N1CCC(C(=O)N2CCOCC2)CC1 [CCG 204024, (1-(4-chlorobenzyl)-1H-indol-2-yl)(4-(morpholine-4-carbonyl)piperidin-1-yl)methanone] | 12.3 µM | 74.9% | 47.4% | 8.3% | – | – |
| Cc1cccc(CNC(=O)C2CCN(C(=O)c3cc4ccccc4n3Cc3ccc(Cl)cc3)CC2)c1 [CCG 204042, 1-(1-(4-chlorobenzyl)-1H-indole-2-carbonyl)-N-(3-methylbenzyl)piperidine-4-carboxamide] | 9.8 µM | 93.7% | 59.5% | 64.4% | – | – |
| O=C(NCc1cccc(Cl)c1)C1CCN(C(=O)c2cc3ccccc3n2Cc2ccc(Cl)cc2)CC1 [CCG 204043, N-(3-chlorobenzyl)-1-(1-(4-chlorobenzyl)-1H-indole-2-carbonyl)piperidine-4-carboxamide] | 28.5 µM | 78.6% | 60.9% | 53.6% | – | – |
| O=C(NCc1ccccc1)C1CCN(C(=O)c2cccn2Cc2ccc(Cl)cc2)CC1 [CCG 204054, N-benzyl-1-(1-(4-chlorobenzyl)-1H-pyrrole-2-carbonyl)piperidine-4-carboxamide] | 54.6 µM | 110% | 108% | 74.5% | – | – |
| O=C(c1cc2ccccc2n1Cc1ccc(F)cc1)N1CCC(CN2CCCCC2)CC1 [CCG 204055, (1-(4-fluorobenzyl)-1H-indol-2-yl)(4-(piperidin-1-ylmethyl)piperidin-1-yl)methanone] | 13.3 µM | 89.7% | 69.9% | 40% | – | – |

| SMILES | IC50 (read-out: Activity IC50 (μM)) | activity at 2 µM | activity at 10 µM | activity at 50 µM [1] | IC50 | activity at 50 µM [2] |
| --- | --- | --- | --- | --- | --- | --- |
| O=C(c1cc2ccccc2n1Cc1ccc(F)cc1)N1CCC(C(O)c2ccccc2)CC1 (stereo not shown) [CCG 204056, (1-(4-fluorobenzyl)-1H-indol-2-yl)(4-(hydroxy(phenyl)methyl)piperidin-1-yl)methanone] | 16 µM | 99.3% | 71.7% | 8.3% | – | – |
| COC(=O)c1cccc(NC(=O)C2CCN(C(=O)c3cc4ccccc4n3Cc3ccc(Cl)cc3)CC2)c1 [CCG 204057, Methyl 3-(1-(1-(4-chlorobenzyl)-1H-indole-2-carbonyl)piperidine-4-carboxamido)benzoate] | 35.6 µM | 87.9% | 54% | 50.9% | – | – |
| CN(Cc1ccccc1)C(=O)C1CCN(C(=O)c2cc3ccccc3[nH]2)CC1 [CCG 205400, N-benzyl-1-(1H-indole-2-carbonyl)-N-methylpiperidine-4-carboxamide] | – | – | – | – | 27.7 µM | 29.1% |
| CN(Cc1ccccc1)C(=O)C1CCN(C(=O)c2cc3ccccc3n2Cc2ccccc2)CC1 [CCG 205404, N-benzyl-1-(1-benzyl-1H-indole-2-carbonyl)-N-methylpiperidine-4-carboxamide] | – | – | – | – | 16.9 µM | 20.5% |
| O=C(NCc1cccnc1)C1CCN(C(=O)c2cc3ccccc3n2Cc2ccc(Cl)cc2)CC1 [CCG 205422, 1-(1-(4-chlorobenzyl)-1H-indole-2-carbonyl)-N-(pyridin-3-ylmethyl)piperidine-4-carboxamide] | – | – | – | – | 11.4 µM | 7.05% |
| CN(Cc1ccccc1)C(=O)C1CCN(C(=O)c2cc3ccccc3n2C)CC1 [CCG 205428, N-benzyl-N-methyl-1-(1-methyl-1H-indole-2-carbonyl)piperidine-4-carboxamide] | – | – | – | – | – | 77.2% |
| CN1CCC(CNC(=O)C2CCN(C(=O)c3cc4ccccc4n3Cc3ccc(Cl)cc3)CC2)CC1 [CCG 205429, 1-(1-(4-chlorobenzyl)-1H-indole-2-carbonyl)-N-((1-methylpiperidin-4-yl)methyl)piperidine-4-carboxamide] | – | – | – | – | – | 26.8% |
| O=C(c1cc2ccccc2n1Cc1ccc(Cl)cc1)N1CCC(C(=O)N2CCN(Cc3cccnc3)CC2)CC1 [CCG 205430, (1-(4-chlorobenzyl)-1H-indol-2-yl)(4-(4-(pyridin-3-ylmethyl)piperazine-1-carbonyl)piperidin-1-yl)methanone] | – | – | – | – | 13.1 µM | 3.55% |
| Cc1c(C(=O)N2CCC(C(=O)NCc3ccccc3)CC2)n(Cc2ccc(Cl)cc2)c2ccccc12 [CCG 205431, N-benzyl-1-(1-(4-chlorobenzyl)-3-methyl-1H-indole-2-carbonyl)piperidine-4-carboxamide] | – | – | – | – | > 100 µM | 48.4% |
| O=C(NCCc1ccncc1)C1CCN(C(=O)c2cc3ccccc3n2Cc2ccc(Cl)cc2)CC1 [CCG 205432, 1-(1-(4-chlorobenzyl)-1H-indole-2-carbonyl)-N-(2-(pyridin-4-yl)ethyl)piperidine-4-carboxamide] | – | – | – | – | 0.53 µM | 3.75% |
| O=C(NCCc1cccnc1)C1CCN(C(=O)c2cc3ccccc3n2Cc2ccc(Cl)cc2)CC1 [CCG 205433, 1-(1-(4-chlorobenzyl)-1H-indole-2-carbonyl)-N-(2-(pyridin-3-yl)ethyl)piperidine-4-carboxamide] | – | – | – | – | 5.34 µM | 1.9% |
| Cn1ccc(CNC(=O)C2CCN(C(=O)c3cc4ccccc4n3Cc3ccc(Cl)cc3)CC2)n1 [CCG 205454, 1-(1-(4-chlorobenzyl)-1H-indole-2-carbonyl)-N-((1-methyl-1H-pyrazol-3-yl)methyl)piperidine-4-carboxamide] | – | – | – | – | 76.9 µM | 46.6% |
| Cn1cnc(CNC(=O)C2CCN(C(=O)c3cc4ccccc4n3Cc3ccc(Cl)cc3)CC2)c1 [CCG 205455, 1-(1-(4-chlorobenzyl)-1H-indole-2-carbonyl)-N-((1-methyl-1H-imidazol-4-yl)methyl)piperidine-4-carboxamide] | – | – | – | – | – | 50.8% |
| O=C(NCCc1ccccn1)C1CCN(C(=O)c2cc3ccccc3n2Cc2ccc(Cl)cc2)CC1 [CCG 205456, 1-(1-(4-chlorobenzyl)-1H-indole-2-carbonyl)-N-(2-(pyridin-2-yl)ethyl)piperidine-4-carboxamide] | – | – | – | – | 22.4 µM | 24.1% |
| O=C(c1cc2ccccc2n1Cc1ccc(Cl)cc1)N1CCC(C(=O)N2Cc3ccccc3C2)CC1 [CCG 205470, (1-(4-chlorobenzyl)-1H-indol-2-yl)(4-(isoindoline-2-carbonyl)piperidin-1-yl)methanone] | – | – | – | – | – | 51.8% |
